Laboratory results as given in patent US20060189675A1, “Crystalline form of a drug” (priority 2004, published 2006).
In brackets after ≈: the same amount, converted by molar mass.

Test: Solubility of Atrasentan Hydrochloride Crystalline Forms in 1,4-dioxane
Type: physicochemical
Conditions: 25° C., n=3
Method: The solubility (in mg/mL) of Atrasentan Hydrochloride Crystalline Forms 1, 2 and 3 in 1,4-dioxane at 25° C.

| Structure (SMILES) | solubility in 1,4-dioxane |
| --- | --- |
| CCCCN(CCCC)C(=O)CN1C[C@H](c2ccc3c(c2)OCO3)[C@@H](C(=O)O)[C@@H]1c1ccc(OC)cc1 [Form 1, (2R,3R,4S)-(+)-2-(4-methoxyphenyl)-4-(1,3-benzodioxol-5-yl)-1-(N,N-di(n-butyl)aminocarbonylmethyl)pyrrolidine-3-carboxylic acid] | 35.60 ± 1.82 mg/mL (≈ 69.7 mM) |
| CCCCN(CCCC)C(=O)CN1C[C@H](c2ccc3c(c2)OCO3)[C@@H](C(=O)O)[C@@H]1c1ccc(OC)cc1 [Form 2, (2R,3R,4S)-(+)-2-(4-methoxyphenyl)-4-(1,3-benzodioxol-5-yl)-1-(N,N-di(n-butyl)aminocarbonylmethyl)pyrrolidine-3-carboxylic acid] | 16.66 ± 0.22 mg/mL (≈ 32.6 mM) |
| CCCCN(CCCC)C(=O)CN1C[C@H](c2ccc3c(c2)OCO3)[C@@H](C(=O)O)[C@@H]1c1ccc(OC)cc1 [Form 3, (2R,3R,4S)-(+)-2-(4-methoxyphenyl)-4-(1,3-benzodioxol-5-yl)-1-(N,N-di(n-butyl)aminocarbonylmethyl)pyrrolidine-3-carboxylic acid] | 16.53 ± 0.22 mg/mL (≈ 32.4 mM) |
